Usually LD50 stands for the dose expected to kill half of the subjects tested.

Like-named read-outs stand apart in the source and are kept apart here.

The source of these data is US4652575A, “2-(ethylene-thio methyl furanyl)amino thiazole derivatives having acid secretion inhibiting activity” (Medosan Industrie Biochimiche Riunite S.p.A., priority 1984, dated 1987).

One data set concerns gastric acid secretion. The following applies: experimental tests on animals and humans; prior art; cited from earlier work.
The next data set in a line: in vivo. The following applies: po; for LD50 at 360 h: mouse; for LD50: rat. From the text: The animals were kept under observation by checking mortality and possible pain signs for 15 days from start of test.
A further data set concerns gastric secretion. Put plainly: Activity on gastric secretion "in vivo" (volume and total acidity of gastric juice after pylorus tieing, Shay). The following applies: for Total acidity gastric juice secretion / Volume gastric juice secretion / change in vivo at 20 mg/kg: 20 mg/kg oral; for change in vivo at 20 mg/kg / ED50: Rattus norvegicus, po; for ED50: per os, 1 hour before pilorus tieing, read-out: DE50 in rat calculated on total acidity (mEq/4 hours); for ability to reduce the gastric acid secretion (in words): volume and total acidity of gastric juice. Also noted: species or system male Wistar rats. How it is done: (§1) The preparations were a solution of the substances in 2.5% citric acid for the "in vitro" test and 5% citric acid for the "in vivo" test respectively. Citric acid was diluted in normal physiologic saline at neutral pH.
The ability of the compounds according to the present invention to inhibit the gastric secretion was studied "in vivo" both by evaluating the volume reduction of gastric juice, and by measuring the total acidity of same after administration of the substances under test according to the Takeda method (see the aforementioned literature).
To this end, tests have been made on male Wistar rats of an average weight of 200 g. The animals, 10 for each substance, were placed into individual cages provided with ground grating in order to avoid coprophagy, without food but with free access to water for 24 hours before test. […] Four hours later the animals were sacrificed and the gastric juice was collected, of which the volume expressed in ml and the total acidity expressed in mEq was measured. The gastric juice ([…] ) was titrated with 0.1N NaOH to pH 7 to determine the acid concentration. The total acidity was then calculated as the product of the total volume of gastric juice by the acid concentration.

A further data set addresses T1, histamine H2 receptors (Cavia porcellus, UniProt P47747).
T1 construct: tests on insulated atrium auricolas of Guinea pig heart; from tissue; host or cells: isolated guinea pig heart atrium
Nature of the data set: Antagonistic activity to the histamine H2 receptors "in vitro" on insulated atrium auricolas of Guinea pig heart. The note with it: for inhibition at 10 µM / inhibition at 1 µM / inhibition at 0.1 µM: guinea pig, 0.5 h, read-out: Antagonizing activity to histamine H2 receptors; for inhibition at 10 µM: compound 1·10^-5 M/L; for inhibition at 1 µM: compound 1·10^-6 M/L; for inhibition at 0.1 µM: compound 1·10^-7 M/L; for antagonistic action to the histamine H2 receptors (in words): in vitro. How it is done:
as §1
This activity was evaluated "in vitro" by carrying out tests on insulated atrium auricolas of Guinea pig heart. […] Metering was carried out by placing the preparation into a vessel containing a Ringer-Locke solution wherein pure oxygen was bubbling, at a temperature of 37° C. A response of the organ "in vitro" was first established at cumulative histamine doses of 2.5.10^-7, 5.10^-7, 10^-6, 5.10^-6, 10^-5 M/L. After obtaining two constant lines with histamine at a time interval of one hour from one another, the substances under test were added to the bath and after a 30 minutes contact with the preparation, a new histamine response line in the presence of the substance under test was drawn. The activity was tested at various concentrations of the new compounds (10^-5, 10^-6, 10^-7 and in one case 10^-8 M/L).

[1] abbreviates: 6 hours before pilorus tieing, read-out: Total acidity gastric juice secretion, Variation %.
Setting [2] is: 6 hours before pilorus tieing, read-out: Volume gastric juice secretion, Variation %.
Setting [3] is: 12 hours before pilorus tieing, read-out: Total acidity gastric juice secretion, Variation %.
Setting [4] is: 12 hours before pilorus tieing, read-out: Volume gastric juice secretion, Variation %.
Setting [5] is: 24 hours before pilorus tieing, read-out: Total acidity gastric juice secretion, Variation %.
The mark [6] stands for this setting: 24 hours before pilorus tieing, read-out: Volume gastric juice secretion, Variation %.
The mark [7] stands for this setting: 36 hours before pilorus tieing, read-out: Total acidity gastric juice secretion, Variation %.
Where [8] appears, read: 36 hours before pilorus tieing, read-out: Volume gastric juice secretion, Variation %.

T1 sequence (P47747 whole entry): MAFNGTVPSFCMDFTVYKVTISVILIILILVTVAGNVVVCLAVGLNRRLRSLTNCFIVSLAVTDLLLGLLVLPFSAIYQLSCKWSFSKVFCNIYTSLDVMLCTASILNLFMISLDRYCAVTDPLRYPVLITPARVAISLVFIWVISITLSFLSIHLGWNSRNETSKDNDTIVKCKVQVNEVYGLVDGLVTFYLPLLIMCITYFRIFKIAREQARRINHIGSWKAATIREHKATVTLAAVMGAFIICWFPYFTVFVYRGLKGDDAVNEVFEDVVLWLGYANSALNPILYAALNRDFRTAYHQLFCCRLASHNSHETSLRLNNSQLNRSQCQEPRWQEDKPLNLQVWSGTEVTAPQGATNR

For the molecule `C/N=C(\S)NCCSCc1[nH]cnc1C` [Metiamide], in the data set on gastric acid secretion, the “reduction of gastric acid secretion (in words)” value was “effective to reduce the gastric acid secretion”.
For `CN(C)Cc1ccc(CSCCNc2nc(-c3ccccc3)cs2)o1` [Example No. 3, 2-(2-(((5-(dimethylamino)methyl-2-furanyl)methyl)thio)ethyl)-amino-4-phenylthiazole], in the data set “in vivo”, the 50% lethal dose (LD50) at 360 h was 550 mg/kg. In “in vivo”, the LD50 came to 900 mg/kg. Moreover, the “Total acidity gastric juice secretion” value is recorded as 0,07 mEq/4 hours in the data set on gastric secretion (6 hours before pilorus tieing), 0,10 mEq/4 hours in the data set on gastric secretion (12 hours before pilorus tieing), 0,12 mEq/4 hours with gastric secretion (24 hours before pilorus tieing) and 0,15 mEq/4 hours with gastric secretion (36 hours before pilorus tieing). Moreover, the “Volume gastric juice secretion” value was 4,0 ml/4 hours in the data set on gastric secretion (6 hours before pilorus tieing), 4,1 ml/4 hours in the data set with gastric secretion (12 hours before pilorus tieing), 4,8 ml/4 hours in the data set with gastric secretion (24 hours before pilorus tieing) and 5,0 ml/4 hours in the data set on gastric secretion (36 hours before pilorus tieing). For the same molecule, the change in vivo at 20 mg/kg with gastric secretion (setting [1]) is -59%; in the data set on gastric secretion (setting [2]), -24%; in the data set on gastric secretion (setting [3]), -33%; with gastric secretion (setting [4]), -20%; with gastric secretion (setting [5]), -29%; in the data set on gastric secretion (setting [6]) it was -14%. Besides, the change in vivo at 20 mg/kg is -6% with gastric secretion (setting [7]) and -11% in the data set with gastric secretion (setting [8]). Moreover, in the data set with gastric secretion, the ED50 is 2.2 mg/kg. The “ability to reduce the gastric acid secretion (in words)” value in the data set on gastric secretion is reported as “interesting ability”. The inhibition at 10 µM at histamine H2 receptors (histamine 1·10^-5 M/L) turned out to be 95%; on histamine H2 receptors (histamine 1·10^-6 M/L) it was 100%; at histamine H2 receptors (histamine 2,5·10^-7 M/L) it was 100%; on histamine H2 receptors (histamine 5·10^-6 M/L), 100%; on histamine H2 receptors (histamine 5·10^-7 M/L) it was 100%. The inhibition at 1 µM came to 52% at histamine H2 receptors (histamine 1·10^-5 M/L); 85% at histamine H2 receptors (histamine 1·10^-6 M/L); 100% at histamine H2 receptors (histamine 2,5·10^-7 M/L); 70% at histamine H2 receptors (histamine 5·10^-6 M/L); 100% at histamine H2 receptors (histamine 5·10^-7 M/L). Further, the inhibition at 0.1 µM at histamine H2 receptors (histamine 1·10^-5 M/L) is 20%; at histamine H2 receptors (histamine 1·10^-6 M/L), 50%; on histamine H2 receptors (histamine 2,5·10^-7 M/L), 85%; on histamine H2 receptors (histamine 5·10^-6 M/L) it was 30%; at histamine H2 receptors (histamine 5·10^-7 M/L) it was 70%. Also, the “antagonistic action to the histamine H2 receptors (in words)” value (“antagonistic action” below) at histamine H2 receptors is given as “interesting ability”.
For `CNC(=S)NCCCCc1cnc[nH]1` [Burimamide], the “reduction of gastric acid secretion (in words)” value in the data set on gastric acid secretion was “effective to reduce the gastric acid secretion”.
As for `CN(C)Cc1ccc(CSCCNc2nc(-c3ccc(Oc4ccccc4)cc3)cs2)o1` [Example No. 13, 2-(2-(((5-(dimethylamino)methyl-2-furanyl)methyl)thio)ethyl)amino-4-(4-phenoxy)phenyl-thiazole], the LD50 at 360 h in the data set “in vivo” came out at 3000 mg/kg. The LD50 in “in vivo” is > 3000 mg/kg. In addition, the “Total acidity gastric juice secretion” value with gastric secretion (6 hours before pilorus tieing) is given as 0,09 mEq/4 hours; in the data set on gastric secretion (12 hours before pilorus tieing), 0,09 mEq/4 hours; in the data set on gastric secretion (24 hours before pilorus tieing), 0,13 mEq/4 hours; with gastric secretion (36 hours before pilorus tieing), 0,15 mEq/4 hours. Besides, the “Volume gastric juice secretion” value is 3,9 ml/4 hours in the data set on gastric secretion (6 hours before pilorus tieing), 3,9 ml/4 hours with gastric secretion (12 hours before pilorus tieing), 4,7 ml/4 hours in the data set on gastric secretion (24 hours before pilorus tieing) and 5,1 ml/4 hours in the data set with gastric secretion (36 hours before pilorus tieing). The change in vivo at 20 mg/kg is -47% in the data set with gastric secretion (setting [1]); -26% with gastric secretion (setting [2]); -40% in the data set on gastric secretion (setting [3]); -23% with gastric secretion (setting [4]); -23% with gastric secretion (setting [5]); -16% in the data set with gastric secretion (setting [6]). Besides, the change in vivo at 20 mg/kg in the data set with gastric secretion (setting [7]) was -6%; in the data set with gastric secretion (setting [8]), -9%. Further, in the data set with gastric secretion, the ED50 was 2.6 mg/kg. For the same molecule, the “ability to reduce the gastric acid secretion (in words)” value with gastric secretion is reported as “interesting ability”. Moreover, the inhibition at 10 µM on histamine H2 receptors (histamine 1·10^-5 M/L) worked out at 90%; on histamine H2 receptors (histamine 1·10^-6 M/L), 95%; on histamine H2 receptors (histamine 2,5·10^-7 M/L) it was 100%; at histamine H2 receptors (histamine 5·10^-6 M/L) it was 90%; at histamine H2 receptors (histamine 5·10^-7 M/L) it was 100%. Besides, the inhibition at 1 µM on histamine H2 receptors (histamine 1·10^-5 M/L) was 38%; on histamine H2 receptors (histamine 1·10^-6 M/L), 80%; at histamine H2 receptors (histamine 2,5·10^-7 M/L) it was 90%; at histamine H2 receptors (histamine 5·10^-6 M/L), 65%; on histamine H2 receptors (histamine 5·10^-7 M/L), 90%. The inhibition at 0.1 µM at histamine H2 receptors (histamine 1·10^-5 M/L) was determined as 40%; at histamine H2 receptors (histamine 1·10^-6 M/L) it was 50%; at histamine H2 receptors (histamine 2,5·10^-7 M/L), 90%; at histamine H2 receptors (histamine 5·10^-6 M/L) it was 30%; on histamine H2 receptors (histamine 5·10^-7 M/L), 70%. In addition, on histamine H2 receptors, the “antagonistic action” value is “interesting ability”.
In “in vivo”, `CN(C)Cc1ccc(CSCCNc2nc(C=Cc3ccccc3)cs2)o1` [Example No. 4, 2-(2-(((5-(dimethylamino)methyl-2-furanyl)methyl)thio)ethyl)amino-4-styryl-thiazole] yielded an LD50 at 360 h of 2900 mg/kg. In “in vivo”, the LD50 came to 3000 mg/kg. Besides, the “Total acidity gastric juice secretion” value with gastric secretion (6 hours before pilorus tieing) is reported as 0,09 mEq/4 hours; with gastric secretion (12 hours before pilorus tieing) it was 0,08 mEq/4 hours; in the data set with gastric secretion (24 hours before pilorus tieing), 0,14 mEq/4 hours; in the data set on gastric secretion (36 hours before pilorus tieing) it was 0,14 mEq/4 hours. The “Volume gastric juice secretion” value with gastric secretion (6 hours before pilorus tieing) is on record as 3,9 ml/4 hours; in the data set with gastric secretion (12 hours before pilorus tieing), 4,0 ml/4 hours; in the data set with gastric secretion (24 hours before pilorus tieing) it was 4,9 ml/4 hours; in the data set on gastric secretion (36 hours before pilorus tieing), 5,3 ml/4 hours. The change in vivo at 20 mg/kg is -47% in the data set with gastric secretion (setting [1]); -26% in the data set with gastric secretion (setting [2]); -47% with gastric secretion (setting [3]); -21% in the data set with gastric secretion (setting [4]); -18% in the data set with gastric secretion (setting [5]); -13% in the data set on gastric secretion (setting [6]). For the same molecule, the figures for the change in vivo at 20 mg/kg in the data set with gastric secretion (setting [7]) and in the data set with gastric secretion (setting [8]) were -12% and -5%, respectively. Also, the ED50 in the data set on gastric secretion is 3.2 mg/kg. Also, the “ability to reduce the gastric acid secretion (in words)” value in the data set with gastric secretion is recorded as “interesting ability”. Further, the inhibition at 10 µM was found to be 93% at histamine H2 receptors (histamine 1·10^-5 M/L); 100% at histamine H2 receptors (histamine 1·10^-6 M/L); 100% on histamine H2 receptors (histamine 2,5·10^-7 M/L); 100% on histamine H2 receptors (histamine 5·10^-6 M/L); 100% on histamine H2 receptors (histamine 5·10^-7 M/L). The inhibition at 1 µM came out at 38% on histamine H2 receptors (histamine 1·10^-5 M/L); 70% at histamine H2 receptors (histamine 1·10^-6 M/L); 100% at histamine H2 receptors (histamine 2,5·10^-7 M/L); 60% at histamine H2 receptors (histamine 5·10^-6 M/L); 100% at histamine H2 receptors (histamine 5·10^-7 M/L). In addition, the inhibition at 0.1 µM at histamine H2 receptors (histamine 1·10^-5 M/L) was determined as 20%; on histamine H2 receptors (histamine 1·10^-6 M/L), 45%; on histamine H2 receptors (histamine 2,5·10^-7 M/L) it was 90%; on histamine H2 receptors (histamine 5·10^-6 M/L) it was 35%; on histamine H2 receptors (histamine 5·10^-7 M/L) it was 70%. The “antagonistic action” value at histamine H2 receptors is recorded as “interesting ability”.
